The values below come from publication PMC9935382, “Sorting nexin-dependent therapeutic targeting of oncogenic epidermal growth factor receptor” (Cancer Gene Therapy, 2022).

Data set [1] relates to EGFRkin / SNX1 BAR domain. Briefly: Competitive binding assay, SNX BAR / EGFRkin. Also noted: species or system human. Particulars: 2.5 μM peptide; data not shown.
A further data set has as its system BT20 cells. The data set can be described thus: BT20 mammosphere formation. It is filed as cell-based. As to the method: 20,000 BT20 cells were suspended in mammosphere media (15 mL Mammocult media supplemented with 1.7 mL Proliferation supplement, 1.5 μL hydrocortisone, 30 μL heparin, and 150μL penicillin/streptomycin) and plated onto a low adhesion 6-well plate. After one week the number of spheres per well were counted. Cells from selected wells were then dissociated in trypsin EDTA and plated with fresh mammosphere media to develop secondary mammospheres.
Cells were then fractionated and verified by HSP90 cytosolic protein, Bap31 membrane protein, or HDAC nuclear protein. […] After the second week, the number of secondary mammospheres were counted.
These spheres were then disassociated and re-plated to form secondary mammospheres.

Another data set has as its system PARP. The data set can be described thus: PARP cleavage in tumor lysates (immunoblot). Format: in vivo, mouse. The conditions noted are these: tumor lysates at sacrifice; 10 μg/g IV 3X/week; vs cPTD4. As to the method:
Lysates were prepared as described, protein concentrations determined by BCA assay (Pierce) and resolved via standard SDS-PAGE [18]. Gels were transferred to either PVDF (Immobilon P or Immobilon FL) membrane and probed with the indicated antibodies and analyzed by either HRP-linked secondaries (Pierce) or IRDye secondaries (Li-Cor), followed by development in Dura Signal (Pierce) or IR (Licor).
The transgenic mouse line WAP-TGFα (The Jackson Laboratory; Tg(WapTgfa)215Bri) were back crossed to C57BL/6 J background (N8). WAP-TGFα heterozygous males were bred with C57BL/6 J females to generate study animals and offspring were genotyped using primers against the WAP-TGFα transgene. WAP-TGFα heterozygous females were housed continuously with C57Bl/6 J males to induce pregnancy, resulting in transgene expression. […] To ensure randomized treatment arms we added mice to alternating treatment arms as they developed tumors, starting with the control cPTD4 arm. When a second mouse from the same litter developed a tumor, that animal was added to the opposite arm from its litter mate. The researchers were not blinded to the treatment arms. […] Once entered, mice were weighed, tumors measured, and injections given intravenously at 10 μg/g body weight 3x/week for 4 weeks. […]

The test system of data set [2] is mammary tumors of WAP-TGFα transgenic mice. Briefly: Tumor growth in WAP-TGFα transgenic mice. Format: in vivo, mouse. The method, then: Statistics for the animal model was performed by the University of Arizona Cancer Center Biostatistics and Bioinformatics Shared Resources (BBSR). The cube root of the observed tumor burden was applied to normalize the raw values. […] For all cell culture experiments error bars represent the standard error of the mean across 3 experimental replicates.
(§1) The transgenic mouse line WAP-TGFα (The Jackson Laboratory; Tg(WapTgfa)215Bri) were back crossed to C57BL/6 J background (N8). WAP-TGFα heterozygous males were bred with C57BL/6 J females to generate study animals and offspring were genotyped using primers against the WAP-TGFα transgene. WAP-TGFα heterozygous females were housed continuously with C57Bl/6 J males to induce pregnancy, resulting in transgene expression. […] To ensure randomized treatment arms we added mice to alternating treatment arms as they developed tumors, starting with the control cPTD4 arm. When a second mouse from the same litter developed a tumor, that animal was added to the opposite arm from its litter mate. The researchers were not blinded to the treatment arms. […] Once entered, mice were weighed, tumors measured, and injections given intravenously at 10 μg/g body weight 3x/week for 4 weeks. […] Upon sacrifice, all tumors were collected and fixed in 10% formalin; a portion of each tumor was homogenized in tissue lysis buffer to form tissue protein lysates. Tissues were paraffin-embedded and sectioned by the Tissue Acquisition and Cell Molecular Analysis Shared Resource at the University of Arizona Cancer Center. The University of Arizona IACUC committee performs oversite of animal experimental protocols with coordination from a veterinarian in compliance with AAALAC.
When tumors reached >100 mm^3, IV injections began at 3X/week, 10 μg/g body weight and tumors were measured 3X/week with calipers. Animals were injected for 4 weeks or until they reached maximal tumor burden, defined as a total tumor volume >2000 mm^3 or an individual tumor measuring >2 cm in diameter. […] The WAP-TGFα is a spontaneous model in which each tumor arises and progresses in a heterogeneous fashion. […] In this study, mice were sacrificed after 4 weeks of injections or once they reached tumor burden, represented by the Kaplin-Meyer graph (Fig. 2B).
(§2) Mice were bred continuously to induce transgene expression and palpated weekly for tumor formation. […] A Changes in tumor size from entry into study until end of study are shown for each individual tumor, (*) indicate tumors that entered the study at size greater than 500 mm^3, all other tumors entered the study at ~100 mm^3. B a Kaplan-Meier survival curve was generated showing when mice were sacrificed by either reaching tumor burden (2000 mm^3) or the end of the study (p = 0.0002). C Upon sacrifice tumors were harvested and fixed in 10% formalin and embedded in paraffin. FFPE blocks were sectioned at […] and stained with hematoxylin and eosin and imaged at 20x. D Protein lysates were generated from tumors upon the sacrifice and probed for the indicated proteins.

The nature of data set [3]: Potential toxicity in C57Bl/6 J female mice. Particulars: 5.0 or 10.0 μg/g body weight IV 3X/week, 2 weeks, cSNX1.3 vs cPTD4; data not shown. It is filed as in vivo, mouse.
Another data set concerns MDA-MB-468 cells. Format: cell-based. The conditions noted are these: 3 days, MTT. The method, then:
2 × 10^3 cells were plated per well in a 96 well plate and left to adhere overnight. The following day, drug treatments were started and continued for 3 days. To measure the viability of the remaining cell population, 10% 3-(4,5-dimethylthiazol-2-yl)-2,5-diphenyltetrazolium (MTT) in media was added and incubated for 2 hours and conversion of MTT to formazan at 540 nm using a biotech Synergy LX plate reader.
A Peptide sequence alignment of modified and stabilized peptides (−) indicates conserved residues, (/) indicates a deleted residue. Modified residues used for staples are (S)-2-(((9H-flouren-9-yl) methoxy) caronylamino)-2-methyl-hept-6-enoic acid and (R)-2-(((9H-flouren-9-yl) methoxy) caronylamino)-2-methyl-dec-9-enoic acid. PTD4 = Protein Transduction Domain. Ac = acetylation of […] and NH2 = amidation of […]. B MDA-MB-468 cells were treated with 10 μM of the indicated peptide for 3 days. Cell viability was measured using an MTT assay. Vehicle control represents 100%. C. A predicted peptide structure of SNX1.3 was generated using SWISSMODEL with negative (blue) and positive (red) residues highlighted.
A–G Cells were plated in a 96-well plate at 2000 cells per well. […] Cell viability was then measured with an MTT assay, viability of treated cells were compared with the vehicle control. […]

Data set [4] relates to mammary fat pad and tumors of WAP-TGFα mice. Briefly: Histopathology (H+E) of WAP-TGFα mouse tissues. Particulars: for Tumor pathology: tumor site in value. Format: in vivo.
Excerpt: as §1, §2
Supplementary Figure 3. Upon sacrifice, tissues were harvested and fixed in 10% formalin. Tissues were embedded, sectioned, and stained with H+E by the Tissue Acquisition and Cell Molecular Analysis Shared Resource (TACMASR) at the University of Arizona Cancer Center. H+E slides were then sent to the UC Davis pathology lab for pathological analysis.

Molecules are shown by their SMILES. Entries after “also recorded” stand apart in the source; their conditions may differ.

For `CC[C@H](C)[C@H](NC(=O)[C@@H](NC(=O)[C@H](Cc1c[nH]cn1)NC(=O)[C@H](CC(N)=O)NC(=O)[C@H](CCCCN)NC(=O)[C@H](C)NC(=O)[C@H](CCCNC(=N)N)NC(=O)[C@H](C)NC(=O)[C@H](CCC(N)=O)NC(=O)[C@H](CCCNC(=N)N)NC(=O)[C@H](C)NC(=O)[C@H](C)NC(=O)[C@H](C)NC(=O)[C@H](CCCNC(=N)N)NC(=O)[C@H](C)NC(=O)[C@H](Cc1ccc(O)cc1)NC(C)=O)C(C)C)C(=O)N[C@@H](CCCCN)C(=O)N[C@@H](Cc1ccc(O)cc1)C(=O)N[C@@H](CC(C)C)C(=O)N[C@@H](CCC(=O)O)C(=O)N[C@H](C(=O)N[C@@H](CC(C)C)C(=O)N[C@@H](CC(C)C)C(=O)N[C@@H](Cc1ccc(O)cc1)C(=O)N[C@@H](CO)C(=O)N[C@@H](CCC(N)=O)C(=O)N[C@@H](CCC(N)=O)C(=O)N[C@@H](CCC(N)=O)C(=O)N[C@@H](CC(C)C)C(=O)N[C@@H](C)C(=O)N[C@@H](CCCCN)C(=O)N[C@@H](Cc1ccc(O)cc1)C(=O)N[C@@H](Cc1c[nH]c2ccccc12)C(=O)N[C@@H](CCC(=O)O)C(=O)N[C@@H](C)C(=O)N[C@@H](Cc1ccccc1)C(=O)N[C@@H](CC(C)C)C(N)=O)[C@@H](C)O` [cSNX1.3], in data set [1], the “inhibition of SNX BAR binding to EGFRkin” value is recorded as “blocks SNX BAR binding to EGFRkin”. Also, the primary mammosphere formation entry in the data set on BT20 cells (1 week treatment, low adhesion plate) is “no mammospheres were formed”. Also, the “secondary mammosphere formation, treated in the first week” value with BT20 cells (cSNX1.3 in first week, then cPTD4 or vehicle in second week) is recorded as “reduction in sphere formation”. Besides, the “secondary mammosphere formation, treated in the second week” value with BT20 cells (treated during second week) is recorded as “no mammosphere formation”. The “PARP cleavage in remaining tumors” value with PARP was “increased PARP cleavage; also recorded: increase in cleaved PARP”. The “tumor response” value in data set [2] (10 μg/g IV 3X/week, up to 4 weeks) was “significant tumor regression; also recorded: significant reduction in tumor growth; also recorded: several tumors completely regress”. The “average tumor regression rate” value in data set [2] (10 μg/g IV 3X/week, up to 4 weeks, n = 11 tumors) is recorded as 4 mm^3/day. The “average tumor growth rate” value in data set [2] (10 μg/g body weight IV 3X/week, up to 4 weeks, cPTD4 n = 14 tumors, cSNX1.3 n = 11 tumors) is -4 mm^3/day. The “mice that reached tumor burden” value in data set [2] (mice of total before end of the study, total tumor volume >2000 mm^3 or individual tumor >2 cm) is 1/6. In addition, the tumors fully regressed in data set [2] (number of tumors, calipers and confirmed during necropsy, 10 μg/g IV 3X/week) was determined as 3. The “tumors that demonstrated growth” value in data set [2] (number or proportion of tumors at end of study, the 2 growing cSNX1.3 tumors entered at greater than 500 mm^3) was determined as 2. Moreover, the “tumors with no change in tumor volume” value in data set [2] (tumors of total, first to last measurement, 10 μg/g IV 3X/week) is 2/11. Moreover, the tumors regressed in data set [2] (tumors of total, 10 μg/g IV 3X/week, up to 4 weeks) is listed as 7/11. In addition, in data set [3], the “weight, behavior, or grooming” value is on record as “No difference in weight, behavior, or grooming was observed”. Also, the “inhibition of cell survival compared with Sapitinib” value in the data set with MDA-MB-468 cells was “more effective than Sapitinib”. Also, the “Fat Pad pathology” value is recorded as “Mammary adenomatous to lobular (atypical) hyperplasia; In situ mammary adenocarcinoma” in data set [4] (mouse 6.13.7 (cSNX1.3)), “Mammary adenomatous to lobular (atypical) hyperplasia; In situ mammary adenocarcinoma; Focal granulomatous mastitis” in data set [4] (mouse 6.4.L (cSNX1.3)), “Mammary adenomatous to lobular (atypical) hyperplasia; In situ mammary adenocarcinoma” in data set [4] (mouse 6.9.LR (cSNX1.3)) and “Mammary adenomatous to lobular (atypical) hyperplasia; In situ cystic (small) mammary adenocarcinoma” in data set [4] (mouse 7.1.9 (cSNX1.3)). Further, the Tumor pathology entry in data set [4] (mouse 6.13.7 (cSNX1.3)) is recorded as “(R2) Mammary adenocarcinoma (cystic)”; in data set [4] (mouse 6.4.L (cSNX1.3)), “(L4) Mammary adenomatous to lobular (atypical) hyperplasia; Adenoma; In situ mammary adenocarcinoma; also recorded: (R4) Mammary adenomatous to lobular (atypical) hyperplasia; Cystic ectasia”; in data set [4] (mouse 6.9.LR (cSNX1.3)) it was “(L4) Mixed malignant tumor (fibrous component)”; in data set [4] (mouse 7.1.9 (cSNX1.3)), “(L4) Mammary adenomatous to lobular (atypical) hyperplasia; also recorded: (R4) Mammary adenocarcinoma”.
